The text below walks through data of patent publication US10940139B2, “Compounds that interact with the Ras superfamily for the treatment of cancers, inflammatory diseases, rasopathies, and fibrotic disease” (Shy Therapeutics LLC, priority 2017, dated 2021).

Experiment [1] concerns TNFα production in RAW 264.7 macrophage cell line. The experiment is described as follows: Mouse TNF alpha quantification assay (LPS-stimulated macrophages, ELISA). As to conditions: RAW264.7, RAW 264.7 murine leukemia virus transformed macrophage cell lines, LPS stimulation, read-out: TNF-α % Inhibition at 30 μM. It is filed as cell-based.
The test system of experiment [2] is IL6 production in RAW 264.7 macrophage cell line. The experiment is described as follows: Mouse IL6 quantification assay (LPS-stimulated macrophages, ELISA). The format is cell-based. The settings on record: RAW264.7, RAW 264.7 murine leukemia virus transformed macrophage cell lines, LPS stimulation, read-out: IL-6 % Inhibition at 30 μM.

As to `COCCCNc1nc(-c2nccn2C)nc2sc(-c3ccccc3)c(-c3ccccc3)c12` [drawing 2397], the inhibition at 30 µM in experiment [1] and in experiment [2] was 76 to 100% in each case.

As for `O=C(Nc1nnc(-c2ccccn2)[nH]1)C1CCCN(c2ncccn2)C1` (stereo not shown) [drawing 1969], the inhibition at 30 µM was 1 to 25% in experiment [1] and 0% in experiment [2].

For the compound `COc1cccc(-c2csc3c(O)nc(-c4ccccn4)nc23)c1` [drawing 2264], the results for the inhibition at 30 µM in experiment [1] and in experiment [2] were 26 to 50% and 76 to 100%, respectively.

`Cc1nc(-c2ccccn2)nc(O)c1CCC(=O)Nc1cc(F)ccc1F` [drawing 2032]: the inhibition at 30 µM in experiment [1] and in experiment [2] was 1 to 25% in each case.

Consider `COc1cccc(CCC(=O)Nc2nnc(-c3ccccn3)[nH]2)c1` [drawing 1928], for which the inhibition at 30 µM in experiment [1] was 1 to 25%; in experiment [2], 0%.

For the compound `COCCCn1ccc(Nc2cc(C)nc(-c3ccccn3)n2)n1` [drawing 2041], the values for the inhibition at 30 µM in experiment [1] and in experiment [2] were 0% and 26 to 50%, respectively.

For `CC(C)C1=C(O)C2(CC2c2ccc(-c3ccccc3)cc2)C(C)CC1` (stereo not shown) [drawing 2068], the inhibition at 30 µM was 1 to 25% in experiment [1] and 0% in experiment [2].

On to `CC(CO)Nc1nc(-c2nccn2C)nc2sc(-c3ccccc3)c(-c3ccccc3)c12` (stereo not shown) [drawing 2405], for which the results for the inhibition at 30 µM in experiment [1] and in experiment [2] were 1 to 25% and 51 to 75%, respectively.

Regarding `CCc1ccccc1OCC(=O)Nc1nnc(-c2ccccn2)[nH]1` [drawing 1982], the results for the inhibition at 30 µM in experiment [1] and in experiment [2] were 0% and 26 to 50%, respectively.

Consider `Cc1cnc(-c2ccccn2)nc1NC(=O)Cc1ccc2cnccc2c1` [drawing 2249], for which the figures for the inhibition at 30 µM in experiment [1] and in experiment [2] were 0% and 76 to 100%, respectively.

`O=C(c1csc2c(O)nc(-c3ccccn3)nc12)N1CCOC(c2nccs2)C1` (stereo not shown) [drawing 2171]: the results for the inhibition at 30 µM in experiment [1] and in experiment [2] were 1 to 25% and 51 to 75%, respectively.

Take `O=S1(=O)CCC(Nc2nc(-c3ccccn3)nc3scc(-c4ccccc4)c23)C1` (stereo not shown) [drawing 2152]: the inhibition at 30 µM in experiment [1] is 0%; in experiment [2] it was 1 to 25%.

As for `COC(=O)C(C)CN(Cc1ccccc1)c1nc(C(F)(F)F)ccc1C#N` (stereo not shown) [drawing 2065], the results for the inhibition at 30 µM in experiment [1] and in experiment [2] were 0% and 26 to 50%, respectively.

With `Cc1sc2c(O)nc(-c3ccccn3)nc2c1-c1ccccc1Cl` [drawing 2342], the inhibition at 30 µM in experiment [1] and in experiment [2] was 51 to 75% in each case.

Consider `O=C(Nc1nc(-c2ccccn2)cs1)c1ccc2nccnc2c1` [drawing 2011], for which the inhibition at 30 µM in experiment [1] was 0%; in experiment [2], 51 to 75%.

For the compound `Nc1nc(O)c2scc(C(=O)N3CCC(N4CCOCC4)CC3)c2n1` [drawing 2093], the results for the inhibition at 30 µM in experiment [1] and in experiment [2] were 1 to 25% and 0%, respectively.

In the case of `COCCNc1nc(-c2ccncn2)nc2sc(-c3ccccc3)c(-c3ccccc3)c12` [drawing 2401], the inhibition at 30 µM fell in the range of 51 to 75% in experiment [1] and 76 to 100% in experiment [2].

For the compound `COc1ccc(C2CN(C(=O)c3csc4c(O)nc(-c5ccccn5)nc34)CCN2)cc1` (stereo not shown) [drawing 2198], the inhibition at 30 µM is 0% in experiment [1] and 51 to 75% in experiment [2].

Turning to `COc1ccc(CCC(=O)Nc2nnc(-c3ccccn3)[nH]2)cc1` [drawing 1939], the inhibition at 30 µM is 0% in experiment [1] and 1 to 25% in experiment [2].

Regarding `COc1nc(-c2ccccn2)nc(Oc2cccc(C(F)(F)F)c2)c1O` [drawing 2392], the inhibition at 30 µM in experiment [1] was 1 to 25%; in experiment [2] it was 0%.

Regarding `O=C(c1csc2c(O)nc(-c3ccccn3)nc12)N1CC2CC1CN2c1ccccc1` (stereo not shown) [drawing 2231], the inhibition at 30 µM in experiment [1] is 0%; in experiment [2], 51 to 75%.

As to `COC(C)(C)c1ccc(-c2csc3c(O)nc(-c4nccn4C)nc23)cc1` [drawing 2445], the values for the inhibition at 30 µM in experiment [1] and in experiment [2] were 0% and 26 to 50%, respectively.

In the case of `O=C(Nc1nnc(-c2ccccn2)[nH]1)C1=NOC(c2ccccc2)C1` (stereo not shown) [drawing 1992], the inhibition at 30 µM in experiment [1] lay within 1 to 25%; in experiment [2], 26 to 50%.

Consider `O=C(Nc1nnc(-c2ccccn2)[nH]1)C1Cc2ccccc2O1` (stereo not shown) [drawing 1965], for which the inhibition at 30 µM in experiment [1] is 0%; in experiment [2] it was 1 to 25%.

In the case of `COCCNc1nc(-c2ccccn2)nc(-c2cccc(OCCN(C)C)c2)c1Oc1ccccc1` [drawing 2356], the inhibition at 30 µM in experiment [1] is 1 to 25%; in experiment [2] it was 0%.

Take `Cc1nc(-c2ccccn2)nc(O)c1CCC(=O)Nc1ccc(C(C)C)cc1` [drawing 2034]: the inhibition at 30 µM is 1 to 25% in experiment [1] and 0% in experiment [2].

Regarding `c1ccc(-c2nc(N3CCOCC3)c3ccsc3n2)nc1` [drawing 2127], the inhibition at 30 µM in experiment [1] and in experiment [2] was 1 to 25% in each case.

Take `COc1cccc(CN2CCN(C(=O)c3csc4c(O)nc(-c5ccccn5)nc34)CC2)c1` [drawing 2188]: the figures for the inhibition at 30 µM in experiment [1] and in experiment [2] were 0% and 51 to 75%, respectively.

Regarding `Brc1csc2nc(-c3ccccn3)nc(N3CCOCC3)c12` [drawing 2126], the inhibition at 30 µM in experiment [1] is 0%; in experiment [2], 51 to 75%.

As to `O=C(Nc1nnc(-c2ccccn2)[nH]1)c1ccc(=O)n(CCOc2ccccc2)n1` [drawing 1999], the inhibition at 30 µM was 0% in experiment [1] and 26 to 50% in experiment [2].

As for `CN(CC(=O)N1CCCc2c(O)nc(-c3ccccn3)nc21)S(=O)(=O)c1ccccc1` [drawing 2074], the inhibition at 30 µM is 0% in experiment [1] and 1 to 25% in experiment [2].

Turning to `Oc1nc(-c2ccccn2)nc2c(-c3cncc(C(F)F)c3)csc12` [drawing 2329], the inhibition at 30 µM in experiment [1] was 0%; in experiment [2] it was 26 to 50%.

For `Oc1nc(-c2ccccn2)nc2c(-c3ccc(F)cc3F)csc12` [drawing 2263], the values for the inhibition at 30 µM in experiment [1] and in experiment [2] were 26 to 50% and 76 to 100%, respectively.

Turning to `CNC(=O)c1ccc(-c2csc3c(O)nc(-c4ccccn4)nc23)cc1C` [drawing 2277], the inhibition at 30 µM in experiment [1] was 0%; in experiment [2], 26 to 50%.

As for `COc1ccc(F)cc1-c1csc2c(O)nc(-c3ccccn3)nc12` [drawing 2266], the inhibition at 30 µM in experiment [1] lay in the range of 26 to 50%; in experiment [2] it was 76 to 100%.

As for `Oc1nc(-c2ccccn2)nc2cc(-c3ccc(-c4ccccc4)cc3)sc12` [drawing 2386], the results for the inhibition at 30 µM in experiment [1] and in experiment [2] were 1 to 25% and 51 to 75%, respectively.

Consider `Cc1sc2c(O)nc(-c3ccccn3)nc2c1C(=O)N1CCN(c2ccccc2)CC1C` (stereo not shown) [drawing 2333], for which the inhibition at 30 µM is 0% in experiment [1] and 1 to 25% in experiment [2].

Regarding `O=C(Cc1ccc(-n2cnnn2)cc1)Nc1nnc(-c2ccccn2)[nH]1` [drawing 1927], the inhibition at 30 µM was 1 to 25% in experiment [1] and 0% in experiment [2].

As to `O=C(CCc1cnn(-c2ccccc2)c1)Nc1nnc(-c2ccccc2)[nH]1`, the values for the inhibition at 30 µM in experiment [1] and in experiment [2] were 1 to 25% and 26 to 50%, respectively.

Take `O=S(=O)(CCc1ccccc1)N1CCCc2c(O)nc(-c3ccccn3)nc21` [drawing 2083]: the figures for the inhibition at 30 µM in experiment [1] and in experiment [2] were 0% and 26 to 50%, respectively.

Turning to `CC(Oc1cccc(C#N)c1)C(=O)Nc1nnc(-c2ccccn2)[nH]1` (stereo not shown) [drawing 1967], the figures for the inhibition at 30 µM in experiment [1] and in experiment [2] were 0% and 1 to 25%, respectively.
